ChEMBL document CHEMBL1140135 (J Med Chem, 2008)

Tests used:
[1] = biological target: T1, Bifunctional dihydrofolate reductase-thymidylate synthase (Toxoplasma gondii, UniProt Q07422)
T1 sequence (Q07422 whole entry): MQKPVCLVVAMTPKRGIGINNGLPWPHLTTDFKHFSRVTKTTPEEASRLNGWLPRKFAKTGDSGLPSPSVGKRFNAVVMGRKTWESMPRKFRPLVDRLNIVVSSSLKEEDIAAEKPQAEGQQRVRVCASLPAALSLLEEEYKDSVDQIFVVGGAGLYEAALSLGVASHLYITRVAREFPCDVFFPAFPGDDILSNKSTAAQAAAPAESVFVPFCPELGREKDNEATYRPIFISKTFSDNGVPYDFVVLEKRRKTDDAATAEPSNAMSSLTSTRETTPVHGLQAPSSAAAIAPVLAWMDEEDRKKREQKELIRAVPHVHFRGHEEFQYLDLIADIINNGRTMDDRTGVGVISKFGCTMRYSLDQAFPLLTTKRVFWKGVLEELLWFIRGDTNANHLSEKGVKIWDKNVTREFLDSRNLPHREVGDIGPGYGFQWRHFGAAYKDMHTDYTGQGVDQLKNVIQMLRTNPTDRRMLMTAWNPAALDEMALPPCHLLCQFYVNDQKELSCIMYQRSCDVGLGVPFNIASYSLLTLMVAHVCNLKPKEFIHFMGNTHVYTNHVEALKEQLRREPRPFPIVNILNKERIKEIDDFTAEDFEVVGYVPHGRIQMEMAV
Description: Inhibition of Toxoplasma gondii thymidylate synthase

Thymidylate synthase = Thymidylate synthase (Homo sapiens, UniProt P04818)
Description: Inhibition of human thymidylate synthase

[2] = biological target: T2, Dihydrofolate reductase (Escherichia coli) (UniProt P0ABQ4); experiment: Inhibition of Escherichia coli DHFR at >[…] uM
T2 sequence (whole entry): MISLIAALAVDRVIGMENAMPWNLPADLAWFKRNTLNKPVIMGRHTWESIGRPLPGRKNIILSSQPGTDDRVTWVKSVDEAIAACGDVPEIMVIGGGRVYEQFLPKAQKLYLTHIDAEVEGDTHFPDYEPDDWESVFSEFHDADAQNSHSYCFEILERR

[3] = biological target: T1, Bifunctional dihydrofolate reductase-thymidylate synthase; remark: listed apart in the source
Description: Inhibition of Toxoplasma gondii DHFR

Dihydrofolate reductase = biological target: T3, Dihydrofolate reductase (Homo sapiens, UniProt P00374)
T3 sequence (P00374 whole entry): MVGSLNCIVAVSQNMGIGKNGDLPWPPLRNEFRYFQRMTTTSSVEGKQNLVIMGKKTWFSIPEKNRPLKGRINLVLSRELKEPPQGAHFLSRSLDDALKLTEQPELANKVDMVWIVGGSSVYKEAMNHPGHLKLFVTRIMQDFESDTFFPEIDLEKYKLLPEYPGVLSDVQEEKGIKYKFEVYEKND
Description: Inhibition of human recombinant DHFR

Chain of Thymidylate synthase (P04818 whole entry): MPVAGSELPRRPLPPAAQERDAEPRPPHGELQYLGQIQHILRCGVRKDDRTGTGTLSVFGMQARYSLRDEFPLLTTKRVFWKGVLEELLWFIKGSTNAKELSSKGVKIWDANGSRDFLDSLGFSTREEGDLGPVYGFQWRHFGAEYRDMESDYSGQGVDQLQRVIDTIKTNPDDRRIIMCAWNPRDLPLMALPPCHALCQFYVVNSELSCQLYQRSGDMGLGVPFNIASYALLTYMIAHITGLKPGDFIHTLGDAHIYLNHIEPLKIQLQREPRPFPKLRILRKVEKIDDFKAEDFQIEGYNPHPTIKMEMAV

| IC50 (Dihydrofolate reductase) [nM] | Compound | IC50 [1] [nM] | IC50 (Thymidylate synthase) [nM] | inhibition [2] [%] | IC50 [3] [nM] |
| --- | --- | --- | --- | --- | --- |
| 3500 | Cc1sc2nc(N)[nH]c(=O)c2c1Sc1ccccc1 | 8400 | 1200 |  | 120 |
| 1500 | Cc1sc2nc(N)[nH]c(=O)c2c1Sc1ccc(Cl)cc1 | 2600 | 260 |  | 31 |
| 2600 | Cc1sc2nc(N)[nH]c(=O)c2c1Sc1ccc(F)cc1 |  | 1100 |  |  |
| 2200 | Cc1[nH]c2nc(N)[nH]c(=O)c2c1Sc1ccc(C(=O)N[C@@H](CCC(=O)O)C(=O)O)cc1 |  |  |  |  |

The remaining lines, values behind:

| Compound | IC50 (Dihydrofolate reductase) [nM] | IC50 [1] [nM] | IC50 (Thymidylate synthase) [nM] | inhibition [2] [%] | IC50 [3] [nM] |
| --- | --- | --- | --- | --- | --- |
| Cc1sc2nc(N)[nH]c(=O)c2c1Sc1ccc(Cl)c(Cl)c1 |  | 1200 | 110 | 0 | 28 |
| Cc1sc2nc(N)[nH]c(=O)c2c1Sc1ccc2ccccc2c1 | 2900 | 1200 | 120 |  | 44 |
| Cc1sc2nc(N)[nH]c(=O)c2c1Sc1cc(Cl)cc(Cl)c1 | 5600 | 2300 | 1000 | 0 | 64 |
| Cc1sc2nc(N)[nH]c(=O)c2c1Sc1ccc([N+](=O)[O-])cc1 |  |  | 110 |  |  |
| Cc1sc2nc(N)[nH]c(=O)c2c1Sc1ccncc1 | 2500 | 1400 | 280 |  | 34 |
